Tests used:
[1] = tested on: DNA polymerase; details: reported by Ogawa et al., Jpn. J. Cancer Res. 89, 1154-1159, 1998; cited from earlier work
[2] = target: rat pol. β (Rattus norvegicus, UniProt P06766); experiment: Inhibitory activity on rat pol. β ([3H]-dTTP incorporation, poly(dA)/oligo(dT)12-18); format: biochemical; details: compared among fatty acids
Protocol: The activity of rat pol. β was measured according to the method described in reference 3 listed below, by using poly(dA)/oligo(dT)12-18 (template DNA) and [^3H]-dTTP (nucleotide) as substrates and measuring radiation of [^3H]-dTTP incorporated in the presence of nervonic acid of different concentrations.
FIG. 5 is a graph showing an inhibition curve. In FIG. 5, the vertical axis represents the activity of rat pol. β and the horizontal axis represents the concentration of nervonic acid.

[3] = target: HIV reverse transcriptase (Human immunodeficiency virus type 1 group M subtype B, UniProt P03366); experiment: Inhibitory activity on HIV reverse transcriptase; format: biochemical; details: compared with inhibitory activity on rat pol. β
Protocol: The confirmation of the inhibitory activity of nervonic acid on HIV reverse transcriptase was carried out.
Specifically, the inhibitory activity of nervonic acid on HIV reverse transcriptase was measured according to the method described in reference 8 listed below.

Structure (SMILES) | inhibitor on DNA polymerase [1] | inhibition of rat pol. β [2] | inhibitory activity on HIV reverse transcriptase (inhibition curve, FIG. 15) [3]
C[C@H](CCC(=O)O)[C@H]1CC[C@H]2[C@@H]3CC[C@@H]4C[C@H](O)CC[C@]4(C)[C@H]3CC[C@]12C [lithocholic acid, 3-α-hydroxy-5β-cholanoic acid] | known as inhibitors on DNA polymerase | – | –
CCCCCCCC/C=C\CCCCCCCCCCCCCC(=O)O [nervonic acid, cis-15-tetracosenoic acid] | – | one of the fatty acids which most strongly inhibit rat pol. β | substantially equal to the inhibitory activity of nervonic acid on rat pol. β

— patent publication US20040093169A1, “Method of designing molecular structure of enzyme inhibitor” (TOYO SUISAN KAISHA, LTD., priority 2000, published 2004)
